Holding throughout (format): in vivo
What all share (settings): 500 g a.i/ha, foliage treatment after emergence, about 14 days after treatment, score 0-5

The subject of data set [1] is Abutilon theophrasti (velvetleaf). As to the kind of experiment: Test Example-4: herbicidal effect by a foliage treatment after weeds are generated under upland field conditions. An excerpt: (§1) Using the formulation prepared according to the methods described above, the herbicidal effect of the bicyclic pyrazolinone derivative of the invention according to the methods shown in Test Examples below was examined. The herbicidal effect with respect to the test weeds or the phytotoxicity with respect to the test crops was examined according to the following criteria, and evaluated in six stage scores of 0 to 5. A vat having an area of 65 cm^2 and a depth of 2 cm was filled with upland soil, then, seeds of Amaranthus viridis (green amaranthus), Abutilon theophrasti (velvetleaf), Chenopodium album (common lambsquarters), […]. While watering was suitably performed on there, the seeds were grown for 14 days. A wettable powder or an emulsifiable concentrate of the compound of the present invention prepared according to Formulation Example was diluted, and a spray treatment was uniformly performed on the foliage portion of the plant so as to be a predetermined dosage in the amount of water of 4000 L per hectare. The herbicidal effect with respect to the test weeds and the phytotoxicity with respect to corn about 14 days after the treatment were evaluated according to the evaluation criteria in six stages of 0 to 5 described above.

The test system of data set [2] is Amaranthus viridis (green amaranthus). The data set is described as above.
Text: as §1

Data set [3] deals with Chenopodium album (common lambsquarters). Described as above.
Text: as §1

The test system of the next data set is corn. As to the kind of experiment: Test Example-4: phytotoxicity by a foliage treatment after weeds are generated under upland field conditions.
Text: as §1

Turning to `CCS(=O)(=O)Nc1cc(-c2c(Cl)n3n(c2=O)CCCC3)c(F)cc1Cl` [Example 5-51], in data set [1], the “Herbicidal effect Abutilon theophrast” value is on record as 5 (Herbicidal effect/phytotoxicity was 90% or greater). Moreover, in data set [2], the “Herbicidal effect Amaranthus viridis” value is 5 (Herbicidal effect/phytotoxicity was 90% or greater). The “Herbicidal effect Chenopodium album” value in data set [3] is reported as 5 (Herbicidal effect/phytotoxicity was 90% or greater). Further, the “Phytotoxicity Corn” value in the data set with corn was 0 (Herbicidal effect/phytotoxicity was 0% to 10%).

Turning to `COC(=O)C=C(COc1ccccc1Oc1cc(-c2c(Cl)n3n(c2=O)CCCC3)c(F)cc1Cl)OC` [Example 3-23], in data set [1], the “Herbicidal effect Abutilon theophrast” value was 5 (Herbicidal effect/phytotoxicity was 90% or greater). Also, the “Herbicidal effect Amaranthus viridis” value in data set [2] was 5 (Herbicidal effect/phytotoxicity was 90% or greater). The “Herbicidal effect Chenopodium album” value in data set [3] is given as 5 (Herbicidal effect/phytotoxicity was 90% or greater). For the same compound, the “Phytotoxicity Corn” value in the data set on corn was 0 (Herbicidal effect/phytotoxicity was 0% to 10%).

`COc1cc(C)ccc1Oc1cc(-c2c(Cl)n3n(c2=O)CCCC3)c(F)cc1Cl` [Example 3-41]: the “Herbicidal effect Abutilon theophrast” value in data set [1] is recorded as 5 (Herbicidal effect/phytotoxicity was 90% or greater). Besides, in data set [2], the “Herbicidal effect Amaranthus viridis” value was 5 (Herbicidal effect/phytotoxicity was 90% or greater). For the same compound, the “Herbicidal effect Chenopodium album” value in data set [3] is recorded as 5 (Herbicidal effect/phytotoxicity was 90% or greater). Besides, the “Phytotoxicity Corn” value in the data set on corn is 1 (Herbicidal effect/phytotoxicity was 10% to 30%).

Regarding `C#CCOc1cc(F)ccc1Oc1cc(-c2c(Cl)n3n(c2=O)CCCC3)c(F)cc1Cl` [Example 3-35], the “Herbicidal effect Abutilon theophrast” value in data set [1] was 5 (Herbicidal effect/phytotoxicity was 90% or greater). In addition, the “Herbicidal effect Amaranthus viridis” value in data set [2] was 5 (Herbicidal effect/phytotoxicity was 90% or greater). The “Herbicidal effect Chenopodium album” value in data set [3] is listed as 5 (Herbicidal effect/phytotoxicity was 90% or greater). Besides, in the data set on corn, the “Phytotoxicity Corn” value is given as 1 (Herbicidal effect/phytotoxicity was 10% to 30%).

As to `C#CCOc1cc(-c2c(Cl)n3n(c2=O)CCOCC3)ccc1Cl` [Example 1-66], in data set [1], the “Herbicidal effect Abutilon theophrast” value was 5 (Herbicidal effect/phytotoxicity was 90% or greater). In data set [2], the “Herbicidal effect Amaranthus viridis” value is given as 5 (Herbicidal effect/phytotoxicity was 90% or greater). Also, the “Herbicidal effect Chenopodium album” value in data set [3] is on record as 5 (Herbicidal effect/phytotoxicity was 90% or greater). In the data set on corn, the “Phytotoxicity Corn” value was 1 (Herbicidal effect/phytotoxicity was 10% to 30%).

Take `CCOC(=O)C=C(COc1cc(-c2c(Cl)n3n(c2=O)CCCC3)c(F)cc1Cl)OC` (mixture of isomers) [Example 2-14]: in data set [1], the “Herbicidal effect Abutilon theophrast” value is on record as 5 (Herbicidal effect/phytotoxicity was 90% or greater). The “Herbicidal effect Amaranthus viridis” value in data set [2] is listed as 5 (Herbicidal effect/phytotoxicity was 90% or greater). For the same compound, in data set [3], the “Herbicidal effect Chenopodium album” value was 5 (Herbicidal effect/phytotoxicity was 90% or greater). For the same compound, the “Phytotoxicity Corn” value in the data set with corn is given as 0 (Herbicidal effect/phytotoxicity was 0% to 10%).

Turning to `C=CCOc1cc(-c2c(Cl)n3n(c2=O)CCCC3)ccc1Cl` [Example 1-59], the “Herbicidal effect Abutilon theophrast” value in data set [1] is on record as 5 (Herbicidal effect/phytotoxicity was 90% or greater). Besides, the “Herbicidal effect Amaranthus viridis” value in data set [2] is 5 (Herbicidal effect/phytotoxicity was 90% or greater). Moreover, in data set [3], the “Herbicidal effect Chenopodium album” value was 5 (Herbicidal effect/phytotoxicity was 90% or greater). In addition, the “Phytotoxicity Corn” value in the data set on corn is reported as 0 (Herbicidal effect/phytotoxicity was 0% to 10%).

As for `CC1(COc2cc(-c3c(Cl)n4n(c3=O)CCCC4)c(F)cc2Cl)CC(c2ccc(Cl)cc2Cl)=NO1` (stereo not drawn) [Example 4-12], in data set [1], the “Herbicidal effect Abutilon theophrast” value is 5 (Herbicidal effect/phytotoxicity was 90% or greater). In addition, the “Herbicidal effect Amaranthus viridis” value in data set [2] is on record as 5 (Herbicidal effect/phytotoxicity was 90% or greater). In addition, the “Herbicidal effect Chenopodium album” value in data set [3] was 5 (Herbicidal effect/phytotoxicity was 90% or greater). In addition, in the data set on corn, the “Phytotoxicity Corn” value is listed as 1 (Herbicidal effect/phytotoxicity was 10% to 30%).

As for `Nc1cc(-c2c(Cl)n3n(c2=O)CCCC3)c(F)cc1Cl` [Example 5-11], in data set [1], the “Herbicidal effect Abutilon theophrast” value is 5 (Herbicidal effect/phytotoxicity was 90% or greater). In addition, the “Herbicidal effect Amaranthus viridis” value in data set [2] is recorded as 5 (Herbicidal effect/phytotoxicity was 90% or greater). For the same compound, the “Herbicidal effect Chenopodium album” value in data set [3] is recorded as 5 (Herbicidal effect/phytotoxicity was 90% or greater). The “Phytotoxicity Corn” value in the data set with corn is listed as 1 (Herbicidal effect/phytotoxicity was 10% to 30%).

`C=C(COc1cc(-c2c(Cl)n3n(c2=O)CCCC3)c(F)cc1Cl)c1ccc(OCC)c(F)c1F` [Example 1-230]: the “Herbicidal effect Abutilon theophrast” value in data set [1] is on record as 5 (Herbicidal effect/phytotoxicity was 90% or greater). Further, the “Herbicidal effect Amaranthus viridis” value in data set [2] is reported as 5 (Herbicidal effect/phytotoxicity was 90% or greater). For the same compound, the “Herbicidal effect Chenopodium album” value in data set [3] is given as 5 (Herbicidal effect/phytotoxicity was 90% or greater). In addition, the “Phytotoxicity Corn” value in the data set on corn was 0 (Herbicidal effect/phytotoxicity was 0% to 10%).

As for `O=c1c(-c2cc(NS(=O)(=O)c3ccccc3Cl)c(Cl)cc2F)c(Cl)n2n1CCCC2` [Example 5-63], the “Herbicidal effect Abutilon theophrast” value in data set [1] was 5 (Herbicidal effect/phytotoxicity was 90% or greater). The “Herbicidal effect Amaranthus viridis” value in data set [2] is 5 (Herbicidal effect/phytotoxicity was 90% or greater). For the same compound, the “Herbicidal effect Chenopodium album” value in data set [3] was 5 (Herbicidal effect/phytotoxicity was 90% or greater). Also, the “Phytotoxicity Corn” value in the data set with corn is recorded as 0 (Herbicidal effect/phytotoxicity was 0% to 10%).

With `CCCOC(=O)C=C(COc1cc(-c2c(Cl)n3n(c2=O)CCCC3)c(F)cc1Cl)OCC` (mixture of isomers) [Example 2-23], the “Herbicidal effect Abutilon theophrast” value in data set [1] is recorded as 5 (Herbicidal effect/phytotoxicity was 90% or greater). Besides, the “Herbicidal effect Amaranthus viridis” value in data set [2] was 5 (Herbicidal effect/phytotoxicity was 90% or greater). Besides, the “Herbicidal effect Chenopodium album” value in data set [3] is 5 (Herbicidal effect/phytotoxicity was 90% or greater). The “Phytotoxicity Corn” value in the data set on corn is recorded as 0 (Herbicidal effect/phytotoxicity was 0% to 10%).

Regarding `COC(=O)C=C(COc1cc(-c2c(Cl)n3n(c2=O)CCCC3)c(F)cc1Cl)OC` (mixture of isomers) [Example 2-1], the “Herbicidal effect Abutilon theophrast” value in data set [1] is listed as 5 (Herbicidal effect/phytotoxicity was 90% or greater). Further, in data set [2], the “Herbicidal effect Amaranthus viridis” value is recorded as 5 (Herbicidal effect/phytotoxicity was 90% or greater). Besides, in data set [3], the “Herbicidal effect Chenopodium album” value was 5 (Herbicidal effect/phytotoxicity was 90% or greater). Further, in the data set on corn, the “Phytotoxicity Corn” value was 1 (Herbicidal effect/phytotoxicity was 10% to 30%).

For the compound `C#CC(C)Oc1cc(-c2c(Cl)n3n(c2=O)CCCC3)ccc1Cl` (stereo not drawn) [Example 1-67], the “Herbicidal effect Abutilon theophrast” value in data set [1] is given as 5 (Herbicidal effect/phytotoxicity was 90% or greater). Besides, the “Herbicidal effect Amaranthus viridis” value in data set [2] is on record as 5 (Herbicidal effect/phytotoxicity was 90% or greater). Besides, in data set [3], the “Herbicidal effect Chenopodium album” value is on record as 5 (Herbicidal effect/phytotoxicity was 90% or greater). Besides, the “Phytotoxicity Corn” value with corn is on record as 0 (Herbicidal effect/phytotoxicity was 0% to 10%).

In the case of `CC(C)Oc1cccc(Oc2cc(-c3c(Cl)n4n(c3=O)CCCC4)c(F)cc2Cl)c1` [Example 3-11], the “Herbicidal effect Abutilon theophrast” value in data set [1] was 5 (Herbicidal effect/phytotoxicity was 90% or greater). Moreover, the “Herbicidal effect Amaranthus viridis” value in data set [2] is 5 (Herbicidal effect/phytotoxicity was 90% or greater). For the same compound, the “Herbicidal effect Chenopodium album” value in data set [3] is recorded as 5 (Herbicidal effect/phytotoxicity was 90% or greater). The “Phytotoxicity Corn” value with corn is given as 0 (Herbicidal effect/phytotoxicity was 0% to 10%).

(Values after US9580444B2, “Polycyclic pyrazolinone derivative and herbicide comprising same as effective component thereof” (priority 2013, dated 2017).)
